In patent US20120028968A1 (priority 2009, published 2012):
Where a name gives a salt, the structure may show the parent alone.

Target: α7-subtype of nicotinic receptors (Rattus norvegicus, UniProt Q05941)
Test: biochemical
Assay type: binding

α7-subtype of nicotinic receptors, sequence (Q05941 23-502): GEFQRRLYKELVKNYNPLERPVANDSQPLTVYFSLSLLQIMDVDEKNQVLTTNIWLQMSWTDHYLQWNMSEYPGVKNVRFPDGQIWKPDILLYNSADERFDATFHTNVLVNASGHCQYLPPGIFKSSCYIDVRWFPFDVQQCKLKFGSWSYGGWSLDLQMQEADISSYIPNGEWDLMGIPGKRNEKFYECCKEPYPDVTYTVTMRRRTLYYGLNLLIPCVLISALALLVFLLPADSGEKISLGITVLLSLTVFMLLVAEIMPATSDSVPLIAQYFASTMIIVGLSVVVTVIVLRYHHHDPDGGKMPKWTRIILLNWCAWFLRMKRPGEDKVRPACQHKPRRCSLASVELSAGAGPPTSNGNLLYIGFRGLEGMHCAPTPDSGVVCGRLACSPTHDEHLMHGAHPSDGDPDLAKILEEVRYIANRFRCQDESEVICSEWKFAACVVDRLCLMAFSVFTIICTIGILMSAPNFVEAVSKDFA

c1ccc2c(c1)oc1c(-c3nnc(N4CCN5CCC4CC5)o3)cccc12 [Compound 1, 4-(5-Dibenzofuran-4-yl-[1,3,4]oxadiazol-2-yl)-1,4-diaza-bicyclo[3.2.2]nonane fumaric acid salt]
IC50: 16 nM
